Tested on: Plasmodium berghei
Assay: Luciferase/luciferin-expressing antifolate-resistant parasites were used to infect a culture of HepG2 cells that were pre-incubated with compounds. Infected hepatocytes emit light due to the luciferase reaction. Assay results are presented as the percent inhibition of light emission compared to control. […]
Type: functional
Conditions: sporozoite; for IC90: read-out: LUCIFERASE INFECTION ASSAY - IC90

Structure (SMILES)	IC90	further results
CCc1ccc(C2=NN=C(Nc3cccc(S(=O)(=O)N(C)C)c3)SC2)cc1	9.95 µM	IC50 (FFLUC_HILL_SLOPE 1.2, FFLUC_R_SQUARED 0.399, HEPG2TOX_HILL_SLOPE 10.6, HEPG2TOX_R_SQUARED 0.97, PBLUC_HILL_SLOPE 5.57, PBLUC_R_SQUARED 0.702, read-out: LUCIFERASE INFECTION ASSAY - IC50): 6.71 µM
CC(C)(C)c1ccc(C(=O)NCCOc2ccccc2F)cc1	0.642 µM	IC50 (FFLUC_HILL_SLOPE 1.22, FFLUC_R_SQUARED 0.498, PBLUC_HILL_SLOPE 0.635, PBLUC_R_SQUARED 0.572, read-out: LUCIFERASE INFECTION ASSAY - IC50): 0.0201 µM
O=C1C=CC(=O)N1c1ccc(Oc2ccccc2)cc1	> 12.4 µM	IC50 (FFLUC_HILL_SLOPE 1.06, FFLUC_R_SQUARED 0.54, read-out: LUCIFERASE INFECTION ASSAY - IC50): > 12.4 µM
O=[N+]([O-])c1ccccc1NC(=S)N/N=C/c1ccc(O)c(O)c1	8.44 µM	IC50 (FFLUC_HILL_SLOPE 1.09, FFLUC_R_SQUARED 0.362, HEPG2TOX_HILL_SLOPE 7.32, HEPG2TOX_R_SQUARED 0.0511, PBLUC_HILL_SLOPE 3.36, PBLUC_R_SQUARED 0.569, read-out: LUCIFERASE INFECTION ASSAY - IC50): 4.39 µM
Cc1ccc(OC(=O)c2ccc(C(C)(C)C)cc2)c(NC(=O)c2ccc(C(C)(C)C)cc2)c1	> 7.44 µM	IC50 (FFLUC_HILL_SLOPE 1.14, FFLUC_R_SQUARED 0.535, PBLUC_HILL_SLOPE 1.18, PBLUC_R_SQUARED 0.716, read-out: LUCIFERASE INFECTION ASSAY - IC50): 1.43 µM
C/N=c1\scc(-c2ccc(C)c(C)c2)n1/N=C/c1ccc[nH]1	> 10 µM	IC50 (FFLUC_HILL_SLOPE 1.19, FFLUC_R_SQUARED 0.95, read-out: LUCIFERASE INFECTION ASSAY - IC50): > 10 µM
O=C1C(=C2SCCCS2)CC/C1=C\c1ccccc1	5.73 µM	IC50 (FFLUC_HILL_SLOPE 1.05, FFLUC_R_SQUARED 0.81, PBLUC_HILL_SLOPE 0.851, PBLUC_R_SQUARED 0.668, read-out: LUCIFERASE INFECTION ASSAY - IC50): 0.433 µM
Nc1nn(C(=O)c2csc3ccccc23)c2ccccc12	> 10 µM	IC50 (FFLUC_HILL_SLOPE 1.19, FFLUC_R_SQUARED 0.595, HEPG2TOX_HILL_SLOPE 0.0302, HEPG2TOX_R_SQUARED 0.0617, PBLUC_HILL_SLOPE 0.566, PBLUC_R_SQUARED 0.73, read-out: LUCIFERASE INFECTION ASSAY - IC50): 0.359 µM
N#Cc1c(N)nc2c(c1N)C(C(C#N)C#N)c1cc(Br)ccc1O2 (stereo unspecified)	> 8.66 µM	IC50 (FFLUC_HILL_SLOPE 1.21, FFLUC_R_SQUARED 0.243, read-out: LUCIFERASE INFECTION ASSAY - IC50): > 8.66 µM
CCC(C)NC(=O)c1c(NC(=O)C2CCCC2)nc2ccc(C)cn12 (stereo unspecified)	> 9.64 µM	IC50 (FFLUC_HILL_SLOPE 1.17, FFLUC_R_SQUARED 0.173, read-out: LUCIFERASE INFECTION ASSAY - IC50): > 9.64 µM
CCOC(=O)c1c(C)[nH]c(-c2csc(/C(C#N)=C/c3ccc[nH]3)n2)c1C	> 10 µM	IC50 (FFLUC_HILL_SLOPE 1.13, FFLUC_R_SQUARED 0.248, HEPG2TOX_HILL_SLOPE 11.9, HEPG2TOX_R_SQUARED 0.816, PBLUC_HILL_SLOPE 50.7, PBLUC_R_SQUARED 0.357, read-out: LUCIFERASE INFECTION ASSAY - IC50): 9.63 µM
Cc1c(-c2nc3ncc(Br)cc3[nH]2)cc(C#N)n1C	9.96 µM	IC50 (FFLUC_HILL_SLOPE 1.06, FFLUC_R_SQUARED 0.775, HEPG2TOX_HILL_SLOPE 12.7, HEPG2TOX_R_SQUARED 0.745, PBLUC_HILL_SLOPE 2.08, PBLUC_R_SQUARED 0.626, read-out: LUCIFERASE INFECTION ASSAY - IC50): 3.46 µM
N#Cc1c(/N=C/c2ccccc2C(F)(F)F)sc2c1CCCCC2	7.41 µM	IC50 (FFLUC_HILL_SLOPE 1.19, FFLUC_R_SQUARED 0.84, PBLUC_HILL_SLOPE 1.29, PBLUC_R_SQUARED 0.776, read-out: LUCIFERASE INFECTION ASSAY - IC50): 1.35 µM
CC(C)(C)C1=CSC(=C2Sc3ccccc3C2=O)N1	> 11.4 µM	IC50 (FFLUC_HILL_SLOPE 1.22, FFLUC_R_SQUARED 0.112, read-out: LUCIFERASE INFECTION ASSAY - IC50): > 11.4 µM
CCCn1c(SCC(=O)NCC23CC4CC(CC(C4)C2)C3)nc2cc(Cl)ccc2c1=O	> 10 µM	IC50 (FFLUC_HILL_SLOPE 1.09, FFLUC_R_SQUARED 0.071, read-out: LUCIFERASE INFECTION ASSAY - IC50): > 10 µM
COc1ccc(NS(=O)(=O)c2c(C)c(C)c(C)c(C)c2C)cc1O	3.8 µM	IC50 (FFLUC_HILL_SLOPE 1.05, FFLUC_R_SQUARED 0.782, HEPG2TOX_HILL_SLOPE 1.26, HEPG2TOX_R_SQUARED 0.985, PBLUC_HILL_SLOPE 23, PBLUC_R_SQUARED 0.188, read-out: LUCIFERASE INFECTION ASSAY - IC50): 3.45 µM
CCN(CC)c1ccc(S(=O)(=O)N2CCCCC2)cc1NC(=O)c1ccc2c(c1)nnn2CC	> 10 µM	IC50 (FFLUC_HILL_SLOPE 1.06, FFLUC_R_SQUARED 0.385, read-out: LUCIFERASE INFECTION ASSAY - IC50): > 10 µM

Structure (SMILES)	IC90	further results
NS(=O)(=O)c1ccc(CCNc2nn3c(-c4cccc(Cl)c4)cnc3s2)cc1	> 7.6 µM	IC50 (FFLUC_HILL_SLOPE 1.14, FFLUC_R_SQUARED 0.295, read-out: LUCIFERASE INFECTION ASSAY - IC50): > 7.6 µM
CC(C)(C)c1ccc(NC(=O)c2cnccn2)cc1	8.29 µM	IC50 (FFLUC_HILL_SLOPE 1.15, FFLUC_R_SQUARED 0.77, PBLUC_HILL_SLOPE 0.39, PBLUC_R_SQUARED 0.583, read-out: LUCIFERASE INFECTION ASSAY - IC50): 0.0298 µM
CCOC(=O)Cn1c(=O)c2c3c(sc2n(Cc2ccccc2)c1=O)CCCC3	> 8.28 µM	IC50 (FFLUC_HILL_SLOPE 1.15, FFLUC_R_SQUARED 0.544, PBLUC_HILL_SLOPE 1.19, PBLUC_R_SQUARED 0.498, read-out: LUCIFERASE INFECTION ASSAY - IC50): 3.9 µM
CCCCCCCCCCCc1nnc(SCc2ccccc2)n1-c1ccccc1C(F)(F)F	> 6.74 µM	IC50 (FFLUC_HILL_SLOPE 1.21, FFLUC_R_SQUARED 0.637, read-out: LUCIFERASE INFECTION ASSAY - IC50): > 6.74 µM
O=C1C=CC(=O)N1c1cc(F)ccc1F	> 15.8 µM	IC50 (FFLUC_HILL_SLOPE 1.16, FFLUC_R_SQUARED 0.312, PBLUC_HILL_SLOPE 23.3, PBLUC_R_SQUARED 0.503, read-out: LUCIFERASE INFECTION ASSAY - IC50): 15.2 µM
Cc1cc(/C=C/C(=O)Nc2ccc(S(=O)(=O)NC3=NCCCCC3)cc2)c(C)n1-c1ccccc1	6.38 µM	IC50 (FFLUC_HILL_SLOPE 1.16, FFLUC_R_SQUARED 0.166, PBLUC_HILL_SLOPE 1.89, PBLUC_R_SQUARED 0.7, read-out: LUCIFERASE INFECTION ASSAY - IC50): 2 µM
Cc1csc(C(C#N)C(=O)CSc2nc(-c3ccc(Br)cc3)nc3ccccc23)n1 (stereo unspecified)	> 10 µM	IC50 (FFLUC_HILL_SLOPE 1.1, FFLUC_R_SQUARED 0.67, read-out: LUCIFERASE INFECTION ASSAY - IC50): > 10 µM
Cc1cc(C(=O)COC(=O)c2ccccc2N/C=C/C(=O)C(F)(F)F)c(C)n1CC1CCCO1 (stereo unspecified)	> 10 µM	IC50 (FFLUC_HILL_SLOPE 1.17, FFLUC_R_SQUARED 0.844, PBLUC_HILL_SLOPE 1.67, PBLUC_R_SQUARED 0.404, read-out: LUCIFERASE INFECTION ASSAY - IC50): 3.35 µM
CCOc1cc(C(=O)Oc2cccc(Cl)c2Cl)cc(OCC)c1OCC	> 10 µM	IC50 (FFLUC_HILL_SLOPE 1.16, FFLUC_R_SQUARED 0.617, read-out: LUCIFERASE INFECTION ASSAY - IC50): > 10 µM
CC(C)Nc1cc(C(=O)Nc2ccccc2)ncn1	> 12.9 µM	IC50 (FFLUC_HILL_SLOPE 1.2, FFLUC_R_SQUARED 0.891, PBLUC_HILL_SLOPE 0.483, PBLUC_R_SQUARED 0.815, read-out: LUCIFERASE INFECTION ASSAY - IC50): 0.196 µM
c1ccc(Nc2nc(-c3ccc4c(c3)OCCO4)cs2)nc1	2.55 µM	IC50 (FFLUC_HILL_SLOPE 1.22, FFLUC_R_SQUARED 0.822, PBLUC_HILL_SLOPE 0.789, PBLUC_R_SQUARED 0.792, read-out: LUCIFERASE INFECTION ASSAY - IC50): 0.158 µM
CC(C)n1ncc2cc(C(=O)Nc3nc4c(s3)CCCC4)cnc21	0.68 µM	IC50 (FFLUC_HILL_SLOPE 1.2, FFLUC_R_SQUARED 0.643, HEPG2TOX_HILL_SLOPE 0.617, HEPG2TOX_R_SQUARED 0.917, PBLUC_HILL_SLOPE 0.702, PBLUC_R_SQUARED 0.926, read-out: LUCIFERASE INFECTION ASSAY - IC50): 0.0298 µM
CN(Cc1ccc(C(F)(F)F)cc1)C(=O)c1cc(Br)ccc1O	> 10 µM	IC50 (FFLUC_HILL_SLOPE 1.16, FFLUC_R_SQUARED 0.0567, read-out: LUCIFERASE INFECTION ASSAY - IC50): > 10 µM
O=S(=O)(Nc1csc(C(F)(F)F)c1-c1ccccc1)c1cc(Cl)c(Cl)s1	6.91 µM	IC50 (FFLUC_HILL_SLOPE 1.1, FFLUC_R_SQUARED 0.492, HEPG2TOX_HILL_SLOPE 2.51, HEPG2TOX_R_SQUARED 0.937, PBLUC_HILL_SLOPE 4.37, PBLUC_R_SQUARED 0.518, read-out: LUCIFERASE INFECTION ASSAY - IC50): 4.18 µM
Fc1ccccc1-c1cnn2c(NCc3cccs3)ccnc12	> 10.2 µM	IC50 (FFLUC_HILL_SLOPE 1.17, FFLUC_R_SQUARED 0.682, PBLUC_HILL_SLOPE 0.51, PBLUC_R_SQUARED 0.639, read-out: LUCIFERASE INFECTION ASSAY - IC50): 0.238 µM
O=C(Nc1cc(Cl)cc(Cl)c1)Nc1cc(-c2cccs2)n[nH]1	9.3 µM	IC50 (FFLUC_HILL_SLOPE 1.15, FFLUC_R_SQUARED 0.0672, PBLUC_HILL_SLOPE 14.1, PBLUC_R_SQUARED 0.219, read-out: LUCIFERASE INFECTION ASSAY - IC50): 7.95 µM
